The subject of one experiment is HeLa cells. Briefly: luciferase DNP transfection of HeLa cells with drug given before, with or after the DNPs (luciferase activity, light-based assay). As to conditions: drug four hours before, at the same time as, or four hours after luciferase DNPs, versus DNP alone. The class given is cell-based. The procedure:
HeLa cells were transfected with luciferase DNPs either four hours after cells were treated with drug, at the same time as cells were treated with drug, or four hours before cells were treated with drug; DNP alone, RX001 (roscovitine), RX011 (spermine), and RX008 (ruxolitinib).
HeLa cells were transfected with luciferase DNPs either four hours after cells were treated with drug, at the same time as cells were treated with drug, or four hours before cells were treated with drug, DNP alone, RX012 (doxorubicin), RX013 (acetohexamide), and RX014 (sildenafil citrate).
FIG. 12. […] HeLa cell were treated for four hours prior to luciferase DNP administration. Drugs were obtained from a blinded plate. Labels on graphs indicate drugs position on blinded plate. *: p<0.05, **: p<0.01, ***: p<0.001, ***: p<0.0001, compared to DNP Alone group.
(§1) FIG. 17 depicts pharmacological manipulations before, after, and during DNP transfection. Hela cells were given roscovitine (1 μM, CDK1 inhibitor), spermine (1 μM, CKII activator), or ruxolitinib (0.1 μM, JAK inhibitor) at various times during transfection of luciferase DNPs. A. Hela cells were dosed with drugs for 4 hours, washed, and then given luciferase DNPs for 24 hours. B. Hela cells were simultaneously given drug and luciferase DNPs for 24 hr. C. Hela cells were given luciferase DNPs for 4 hours, washed, and then given drug for 24 hr. All cells were then lysed and analyzed for luciferase activity with a light-based assay. (n=8 for each group, signifies p<0.05 and signifies p<0.001).
as §1, with “Hela” for “FIG. 17 depicts pharmacological manipulations before, after, and during DNP transfection. Hela”, “group, mean and SEM shown,” for “group,”, “p<0.001)” for “p<0.001).”

The test system of another experiment is hCFTR gene transfer. Briefly: in vivo hCFTR gene transfer by DNP with drug (CFTR expression, PCR). Set-up: species or system mice. To be noted: 2, 4 and 7 days post-DNP administration; versus DNP alone. From the text:
FIG. 16. Gene transfer of hCFTR is enhanced by pharmacologic manipulation of interactome proteins. DMP alone, RX001 (roscovitine), and RX008 (ruxolitinib), 2 days post-DNP administration, 4 days post-DNP administration and 7 days post-DNP administration.
FIG. 22. CFTR Expression comparison between NHBE cells (normal human bronchial/tracheal epithelial cells), Untreated Mice and Day 2 DNP Treated Mice, and CFTR Expression comparison in Day 4 mice treated with a vehicle (DNP Alone) or drug. Day 4 data represents vector subtracted values for the PCR of CFTR.

Experiment [1] relates to luciferase DNP gene transfer. Briefly: in vivo luciferase DNP gene transfer, drug dosed 2 hours before intratracheal DNP (BLI total photons and lung luciferase activity). To be noted: for enhancement of in vivo DNP transfection over time (BLI): 2, 3, 7 and 14 days after DNP; for enhancement of in vivo DNP transfection over time (BLI) / DNP gene delivery efficacy in vivo (BLI total photons and lung luciferase activity): roscovitine 10 mg/kg, spermine 20 mg/kg, ruxolitinib 1 mg/kg, 2 hours prior to intratracheal 100 μg luciferase DNP; for DNP gene delivery efficacy in vivo (BLI total photons and lung luciferase activity): 14 days post DNP administration; for luciferase gene transfer in vivo, Bioluminescent Image (BLI) analysis: day 2, day 3, day 7 and day 14, compared to DNP Alone group; for total photons over a 10 min BLI exposure from the chest ROI, difference from the DNP alone group: day 14 after DNP, spermine 20 mg/kg (P<0.5), roscovitine 10 mg/kg (p<0.01), dosed 2 hours prior to intratracheal 100 μg luciferase DNP; for luciferase gene transfer in vivo, BLI image analysis and luciferase activity assay: versus DNP alone.
Method: Total photon measurements were taken from the chest of each mouse, ROI outlined in red, and background luminescence was subtracted from mice saline control mice (not shown). B. Total photons collected over a 10 min BLI exposure from the ROI at each day.
All data was collected 14 days post DNP administration. […] The ROI, outlined in red, was consistently drawn on each mouse and used to quantify total photons in each mouse. B. Total photons collected over a 10 min BLI exposure from the ROI. Mice that received saline instead of DNPs (not shown) were used to subtract background from the experimental mice. […] Lungs from mice used in B were harvested immediately after BLI imaging and assayed for luciferase activity. (n>10 for each group, p<0.05, p<0.01, p<0.001)
All data was collected 14 days post DNP administration. […] The ROI, outlined in red, was consistently drawn on each mouse and used to quantify total photons in each mouse. B. Total photons collected over a 10 min BLI exposure from the ROI. Mice that received saline instead of DNPs (not shown) were used to subtract background from the experimental mice. […] Lungs from mice used in B were harvested immediately after BLI imaging and assayed for luciferase activity. (n>10 for each group, mean and SEM shown, p<0.05, p<0.01, p<0.001)

SMILES strings stand for the structures.

Data on six compounds can be found in patent US20230416782A1, “ENHANCED NANOPARTICLE DELIVERY SYSTEMS” (Children's Hospital Medical Center, priority 2020, published 2023).

For `CC(=O)c1ccc(S(=O)(=O)NC(=O)NC2CCCCC2)cc1` [RX013, Acetohexamide], in the experiment on HeLa cells, the “gene transfer of luciferase in vitro” value is “enhanced”.

As to `CC[C@H](CO)Nc1nc(NCc2ccccc2)c2ncn(C(C)C)c2n1` [RX001, Roscovitine], in the experiment on HeLa cells, the “gene transfer of luciferase in vitro” value is “enhanced”. In the experiment with hCFTR gene transfer, the “gene transfer of hCFTR” value is on record as “enhanced”. In addition, in experiment [1], the “enhancement of in vivo DNP transfection over time (BLI)” value (shortened to “enhancement … over time (BLI)”) is given as “maintained over time”; the “DNP gene delivery efficacy in vivo (BLI total photons and lung luciferase activity)” value (shortened to “DNP gene delivery efficacy in vivo”) was “enhancement”; the “luciferase gene transfer in vivo, Bioluminescent Image (BLI) analysis” value (from here on “luciferase gene transfer … (BLI) analysis”) is given as “enhances”; the “total photons over a 10 min BLI exposure from the chest ROI, difference from the DNP alone group” value is recorded as “significantly different”. Moreover, the “luciferase gene transfer in vivo, BLI image analysis and luciferase activity assay” value in experiment [1] is given as “enhances”.

Take `N#CC[C@H](C1CCCC1)n1cc(-c2ncnc3[nH]ccc23)cn1` [RX008, Ruxolitinib]: the “gene transfer of luciferase in vitro” value in the experiment on HeLa cells is listed as “enhanced”. Also, the “gene transfer of hCFTR” value with hCFTR gene transfer is given as “enhanced”. Besides, in experiment [1], the “enhancement … over time (BLI)” value is “maintained over time”; the “DNP gene delivery efficacy in vivo” value is on record as “enhancement”; the “luciferase gene transfer … (BLI) analysis” value is on record as “enhances”; the “luciferase gene transfer in vivo, BLI image analysis and luciferase activity assay” value is reported as “enhances”.

As to `COc1cccc2c1C(=O)c1c(O)c3c(c(O)c1C2=O)C[C@@](O)(C(=O)CO)C[C@@H]3O[C@H]1C[C@H](N)[C@H](O)[C@H](C)O1` [RX012, Doxorubicin], in the experiment with HeLa cells, the “gene transfer of luciferase in vitro” value is on record as “enhanced”.

Turning to `NCCCNCCCCNCCCN` [RX011, Spermine], the “gene transfer of luciferase in vitro” value in the experiment on HeLa cells was “enhanced”. For the same compound, in experiment [1], the “enhancement … over time (BLI)” value is listed as “maintained over time”; the “DNP gene delivery efficacy in vivo” value is “enhancement”; the “luciferase gene transfer … (BLI) analysis” value was “enhances”; the “total photons over a 10 min BLI exposure from the chest ROI, difference from the DNP alone group” value is on record as “significantly different”. For the same compound, in experiment [1], the “luciferase gene transfer in vivo, BLI image analysis and luciferase activity assay” value was “enhances”.

In the case of `CCCc1nn(C)c2c(=O)nc(-c3cc(S(=O)(=O)N4CCN(C)CC4)ccc3OCC)[nH]c12` [RX014, Sildenafil], the “gene transfer of luciferase in vitro” value with HeLa cells is listed as “enhanced”.
